System: IPF patient derived fibroblasts
Experiment: Traction Force Microscopy of IPF patient derived fibroblasts
Format: cell-based, human
Details: IPF fibroblasts on 6.4 kPa matrices
Experimental: Traction Force Microscopy: Traction analysis was conducted as previously described. Briefly, polyacrylamide substrates with shear moduli of 6.4 kPa were prepared, and fluorescent sulfate-modified latex microspheres (0.2 μm, 505/515 ex/em) (FluoSpheres, Life Technologies) were conjugated to the gel surfaces after treatment with 1 mg ml^−1 of dopamine hydrochloride (Sigma-Aldrich) in 50 mM HEPES solution (pH 8.5). IPF patient derived fibroblasts were plated on the gels overnight and treated as indicated before traction force measurements. Images of gel surface-conjugated fluorescent beads were acquired for each cell before and after trypsinization using a Nikon ECLIPSE Ti microscope at ×10 magnification. Traction forces were estimated by measuring bead displacement fields and computing corresponding traction fields using TractionsForAll (freely distributed program that calculates 2-D tractions exerted by an adherent cell on its substrate).

Oc1cc2c(cc1O)[C@H]1c3ccccc3CN[C@@H]1CC2 (racemic) [Dihydrexidine, dihydrexidine]
contractile forces (traction force microscopy): significantly and dose-dependently reduced the contractile forces
